Measured values: the supplement of paper PMC10307832

Columns and labels:
Test in all cases: relative viability (nuclei count vs DMSO), 5 days (fraction); higher = more cells survive
[1] = compound: C[As](C)SC[C@H](NC(=O)CC[C@H](N)C(=O)O)C(=O)NCC(=O)O [Darinaparsin] + C[C@@H](Oc1cc(-c2cnn(C3CCNCC3)c2)cnc1N)c1c(Cl)ccc(F)c1Cl [Crizotinib] (partner 1 µM)
Summary of the method: (§1)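 Lung cancer cell lines were seeded in 1536-well plates and dosed by pin tool the next day, with either a single drug or a fixed anchor-drug dose combined with five library-drug doses (not always all listed) spaced in √10 steps. Five days later, one step fixed the cells and stained their nuclei (final 0.05% Triton X-100, 1% formaldehyde, 1 ug/ml Hoechst), and nuclei were counted on 4× images. Relative viability is the nuclei count in treated wells divided by the count in vehicle wells, and each value is the median of duplicate plates.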

[2] = compound: CC1=C(C=C(C=C1)NC(=O)C2=CC(=CC=C2)C(C)(C)C#N)NC3=CC4=C(C=C3)N=CN(C4=O)C [AZ628] + Cc1cc(Nc2cc(N3CCN(C)CC3)nc(Sc3ccc(NC(=O)C4CC4)cc3)n2)n[nH]1 [Tozasertib] (partner 0.1 µM)
Summary of the method: as §1

[3] = compound: C1CC2=C(C1)C=C(C=C2)OC3=NC(=C4C(=N3)N(C=N4)CC5=CC=C(C=C5)C6=CC=CC=C6)N[C@@H](CC7=CC=CC=C7)CO [QS11] + COc1cccc2cc(-c3nc([C@H]4CC[C@H](C(=O)O)CC4)n4ncnc(N)c34)[nH]c12 [OSI-027] (partner 0.5 µM)
Summary of the method: as §1

[4] = compound: C[As](C)SC[C@H](NC(=O)CC[C@H](N)C(=O)O)C(=O)NCC(=O)O [Darinaparsin] + O=C(CCCCCCC(=O)Nc1ccccc1)NO [Vorinostat] (partner 1 µM)
Summary of the method: as §1

| Cell Line | relative viability ([1]; first compound 0.08 µM) | relative viability ([1]; first compound 0.8 µM) | relative viability ([1]; first compound 2.53 µM) | relative viability ([1]; first compound 8 µM) | relative viability ([2]; first compound 0.08 µM) | relative viability ([2]; first compound 0.253 µM) | relative viability ([2]; first compound 0.8 µM) | relative viability ([2]; first compound 2.53 µM) | relative viability ([2]; first compound 8 µM) | relative viability ([3]; first compound 0.08 µM) | relative viability ([3]; first compound 0.253 µM) | relative viability ([3]; first compound 0.8 µM) | relative viability ([3]; first compound 2.53 µM) | relative viability ([3]; first compound 8 µM) | relative viability ([4]; first compound 0.08 µM) | relative viability ([4]; first compound 0.8 µM) | relative viability ([4]; first compound 2.53 µM) | relative viability ([4]; first compound 8 µM) |
| --- | --- | --- | --- | --- | --- | --- | --- | --- | --- | --- | --- | --- | --- | --- | --- | --- | --- | --- |
| HCC-827 | 0.959 | 0.853 | 0.979 | 0.965 | 0.43 | 0.468 | 0.374 | 0.494 | 0.344 | 0.845 | 0.855 | 0.754 | 0.862 | 1.01 | 0.874 | 0.818 | 0.775 | 0.963 |
| HOP-62 | 1.02 | 1.05 | 1.05 | 1.06 | 0.396 | 0.38 | 0.362 | 0.358 | 0.326 | 0.879 | 0.845 | 0.811 | 0.65 | 0.837 | 0.765 | 0.654 | 0.522 | 0.819 |
| IA-LM | 1.06 | 0.645 | 0.788 | 0.923 |  |  |  |  |  |  |  |  |  |  | 0.947 | 1.07 | 1.2 | 0.89 |
| LC-2-ad | 0.524 | 0.459 | 0.447 | 0.383 | 0.445 | 0.427 | 0.548 | 0.392 | 0.354 | 0.783 | 0.413 | 0.873 | 0.847 | 0.79 | 0.805 | 0.762 | 0.657 | 0.829 |
| LCLC-103H | 1.12 | 1.04 | 0.979 | 1.03 | 0.525 | 0.52 | 0.473 | 0.523 | 0.384 | 0.434 | 0.45 | 0.469 | 0.49 | 0.502 | 0.796 | 0.713 | 0.732 | 0.885 |
| LK-2 | 0.208 |  | 0.208 | 0.196 | 0.166 | 0.167 | 0.17 | 0.173 | 0.165 | 0.181 | 0.238 | 0.188 | 0.212 | 0.22 | 0.283 | 0.268 | 0.256 | 0.263 |
| LOU-NH91 | 0.779 | 0.759 | 0.75 | 0.737 | 0.568 | 0.7 | 0.7 | 0.629 | 0.573 | 0.678 | 0.722 | 0.693 | 0.728 | 0.71 | 0.937 | 0.885 | 0.86 | 0.969 |
| LU99A | 0.626 | 0.574 | 0.461 | 0.593 | 0.272 | 0.242 | 0.265 | 0.231 | 0.257 | 0.255 | 0.306 | 0.299 | 0.291 | 0.315 | 0.477 | 0.47 | 0.524 | 0.455 |
| LXF-289 | 0.855 | 0.814 | 0.682 | 0.906 | 0.199 | 0.213 | 0.195 | 0.174 | 0.155 | 0.764 | 0.805 | 0.692 | 0.873 | 0.82 | 0.775 | 0.788 | 0.828 | 0.779 |
